Measured values: US20070049564A1 (Wyeth, priority 2005, published 2007)
Values after ≈ are worked out from the molar mass of the structure shown. Like-named read-outs stand apart in the source and are kept apart here.

Experiments:
S. aureus GC 6335 = assay: MIC, broth microdilution; settings: for MIC: Staphylococcus aureus
S. aureus GC 2216 = assay: MIC, broth microdilution; settings: Staphylococcus aureus
E. faecalis GC 2242 = assay: MIC, broth microdilution; settings: Enterococcus faecalis
E. coli = assay: Range of MIC for E. coli strains; settings: Escherichia coli
E. faecium GC 2243 = assay: MIC, broth microdilution; settings: for MIC: Enterococcus faecium
E. coli GC 2232 = assay: MIC, broth microdilution; settings: Escherichia coli, GC2232, read-out: MINIMAL INHIBITORY CONCENTRATION MIC, pre-incubated in Water
E. faecalis GC 2265 = assay: MIC, broth microdilution; settings: for MIC: Enterococcus faecalis
E. coli GC 4559 = assay: MIC, broth microdilution; settings: Escherichia coli, GC4559, read-out: MINIMAL INHIBITORY CONCENTRATION MIC, pre-incubated in Water
S. pneumoniae+ GC 4465 = assay: MIC, broth microdilution; settings: for MIC: Streptococcus pneumoniae
E. coli GC 2270 = assay: MIC, broth microdilution; settings: Escherichia coli, GC2270, read-out: MINIMAL INHIBITORY CONCENTRATION MIC, pre-incubated in Water
E. coli GC 1073 = assay: MIC, broth microdilution; settings: Escherichia coli, GC1073, read-out: MINIMAL INHIBITORY CONCENTRATION MIC, pre-incubated in Water
S. agalactiae GC 4564 = assay: MIC, broth microdilution; settings: Streptococcus agalactiae, GC4564, read-out: MINIMAL INHIBITORY CONCENTRATION MIC, pre-incubated in Water
E. coli GC 3226 = assay: MIC, broth microdilution; settings: Escherichia coli, GC3226, read-out: MINIMAL INHIBITORY CONCENTRATION MIC, pre-incubated in Water
E. coli GC 2271 = assay: MIC, broth microdilution; settings: Escherichia coli, GC2271, read-out: MINIMAL INHIBITORY CONCENTRATION MIC, pre-incubated in Water
c. albicans GC 3066 = assay: MIC, broth microdilution
S. aureus GC 4536 = assay: MIC, broth microdilution; settings: for MIC: Staphylococcus aureus
S. aureus GC 6469 = assay: MIC, broth microdilution; settings: for MIC: Staphylococcus aureus
S. pyogenes GC 4563 = assay: MIC, broth microdilution; settings: for MIC: Streptococcus pyogenes
Staph. aureus Smith = assay: In vivo activity (oral, iv; ED50) against Staph. aureus Smith in mice
Description: Representative examples of compounds of Formula I were tested for the oral efficacy using S. aureus Smith in mice.

P. aeruginosa GC 2214 = assay: MIC, broth microdilution; settings: Pseudomonas aeruginosa

CN(C)c1cc(NC(=O)CN(C(=O)OCOC(=O)CC(C)(C)C)C(C)(C)C)c(O)c2c1C[C@H]1C[C@H]3[C@H](N(C)C)C(O)=C(C(N)=O)C(=O)[C@@]3(O)C(O)=C1C2=O [Example 42, ({[(2-{[(5aR,6aS,7S,10aS)-9-(aminocarbonyl)-4,7-bis(dimethylamino)-1,8,10a,11-tetrahydroxy-10,12-dioxo-5,5a,6,6a,7,10,10a,12-octahydrotetracen-2-yl]amino}-2-oxoethyl)(tert-butyl)amino]carbonyl}oxy)methyl 3,3-dimethylbutanoate]
MIC (S. aureus GC 6335; GC6335, read-out: MINIMAL INHIBITORY CONCENTRATION MIC, pre-incubated in Mouse Serum): 2 µg/mL (≈ 2.64 µM)
MIC (S. aureus GC 6335; GC6335, read-out: MINIMAL INHIBITORY CONCENTRATION MIC, pre-incubated in Water): 4 µg/mL (≈ 5.28 µM)
MINIMAL INHIBITORY CONCENTRATION MIC (S. aureus GC 6335; pre-incubated in Mouse Serum): 4 UG/ML
MIC (S. aureus GC 2216; GC2216, read-out: MINIMAL INHIBITORY CONCENTRATION MIC, pre-incubated in Mouse Serum): 2 µg/mL (≈ 2.64 µM)
MIC (S. aureus GC 2216; GC2216, read-out: MINIMAL INHIBITORY CONCENTRATION MIC, pre-incubated in Water): 4 µg/mL (≈ 5.28 µM)
MIC (E. faecalis GC 2242; GC2242, read-out: MINIMAL INHIBITORY CONCENTRATION MIC, pre-incubated in Mouse Serum): 4 µg/mL (≈ 5.28 µM)
MIC (E. faecalis GC 2242; GC2242, read-out: MINIMAL INHIBITORY CONCENTRATION MIC, pre-incubated in Water): 8 µg/mL (≈ 10.6 µM)
MIC (E. coli; 20 h, read-out: Range of MIC, E. coli (Mouse Serum)): 4 to 16 µg/mL (≈ 5.28 to 21.1 µM)
MIC (E. coli; read-out: Minimum inhibitory concentration (MIC), E. coli (Human Serum)): > 64 µg/mL
MIC (E. coli; read-out: Minimum inhibitory concentration (MIC), E. coli (water)): > 64 µg/mL
MIC (E. coli; read-out: Range of MIC, E. coli (Water)): > 64 µg/mL
MIC (E. faecium GC 2243; GC2243, read-out: MINIMAL INHIBITORY CONCENTRATION MIC, pre-incubated in Mouse Serum): 2 µg/mL (≈ 2.64 µM)
MIC (E. faecium GC 2243; GC2243, read-out: MINIMAL INHIBITORY CONCENTRATION MIC, pre-incubated in Water): 4 µg/mL (≈ 5.28 µM)
MINIMAL INHIBITORY CONCENTRATION MIC (E. faecium GC 2243; pre-incubated in Mouse Serum): 4 UG/ML
MIC (E. coli GC 2232): > 64 µg/mL
MIC (E. faecalis GC 2265; GC2265, read-out: MINIMAL INHIBITORY CONCENTRATION MIC, pre-incubated in Mouse Serum): 2 µg/mL (≈ 2.64 µM)
MIC (E. faecalis GC 2265; GC2265, read-out: MINIMAL INHIBITORY CONCENTRATION MIC, pre-incubated in Water): 8 µg/mL (≈ 10.6 µM)
MINIMAL INHIBITORY CONCENTRATION MIC (E. faecalis GC 2265; pre-incubated in Mouse Serum): 4 UG/ML
MIC (E. coli GC 4559): > 64 µg/mL
MIC (S. pneumoniae+ GC 4465; read-out: MINIMAL INHIBITORY CONCENTRATION MIC, pre-incubated in Mouse Serum): 4 µg/mL (≈ 5.28 µM)
MIC (S. pneumoniae+ GC 4465; read-out: MINIMAL INHIBITORY CONCENTRATION MIC, pre-incubated in Water): 8 µg/mL (≈ 10.6 µM)
MINIMAL INHIBITORY CONCENTRATION MIC (S. pneumoniae+ GC 4465; pre-incubated in Mouse Serum): 8 UG/ML
MIC (E. coli GC 2270): > 64 µg/mL
MIC (E. coli GC 1073): > 64 µg/mL
MIC (S. agalactiae GC 4564): 8 µg/mL (≈ 10.6 µM)
MIC (E. coli GC 3226): > 64 µg/mL
MIC (E. coli GC 2271): > 64 µg/mL
MIC (c. albicans GC 3066; Candida albicans, GC3066, read-out: MINIMAL INHIBITORY CONCENTRATION MIC): > 64 µg/mL
MINIMAL INHIBITORY CONCENTRATION MIC (c. albicans GC 3066; pre-incubated in Mouse Serum): >64 UG/ML
MIC (S. aureus GC 4536; GC4536, read-out: MINIMAL INHIBITORY CONCENTRATION MIC, pre-incubated in Mouse Serum): 2 µg/mL (≈ 2.64 µM)
MIC (S. aureus GC 4536; GC4536, read-out: MINIMAL INHIBITORY CONCENTRATION MIC, pre-incubated in Water): 8 µg/mL (≈ 10.6 µM)
MINIMAL INHIBITORY CONCENTRATION MIC (S. aureus GC 4536; pre-incubated in Mouse Serum): 4 UG/ML
MIC (S. aureus GC 6469; GC6469, read-out: MINIMAL INHIBITORY CONCENTRATION MIC, pre-incubated in Mouse Serum): 2 µg/mL (≈ 2.64 µM)
MIC (S. aureus GC 6469; GC6469, read-out: MINIMAL INHIBITORY CONCENTRATION MIC, pre-incubated in Water): 4 µg/mL (≈ 5.28 µM)
MINIMAL INHIBITORY CONCENTRATION MIC (S. aureus GC 6469; pre-incubated in Mouse Serum): 4 UG/ML
MIC (S. pyogenes GC 4563; GC4563, read-out: MINIMAL INHIBITORY CONCENTRATION MIC, pre-incubated in Mouse Serum): 2 µg/mL (≈ 2.64 µM)
MIC (S. pyogenes GC 4563; GC4563, read-out: MINIMAL INHIBITORY CONCENTRATION MIC, pre-incubated in Water): 4 µg/mL (≈ 5.28 µM)
MINIMAL INHIBITORY CONCENTRATION MIC (S. pyogenes GC 4563; pre-incubated in Mouse Serum): 4 UG/ML
ED50 (Staph. aureus Smith; Staphylococcus aureus, in Mus musculus, iv, read-out: ED50 SIV (Staph aureus Smith)): 1.43 mg/kg
ED50 (Staph. aureus Smith; Staphylococcus aureus, in Mus musculus, po, read-out: ED50 SOD (Staph aureus Smith)): 5.68 mg/kg
ED50 (Staph. aureus Smith; Staphylococcus aureus, in Mus musculus, po, read-out: ED50 Staph Smith SOD): 5.68 mg/kg
ED50 (Staph. aureus Smith; iv, read-out: ED50 Staph Smith SIV): 1.43 mg/kg
MIC (P. aeruginosa GC 2214; GC2214, read-out: MINIMAL INHIBITORY CONCENTRATION MIC, pre-incubated in Mouse Serum): > 64 µg/mL
MIC (P. aeruginosa GC 2214; GC2214, read-out: MINIMAL INHIBITORY CONCENTRATION MIC, pre-incubated in Water): > 64 µg/mL
